Assays:
[1] = IRWIN test (toxic dose / maximally tolerable dosage); type: in vivo
Procedure: FIG. 1 and Table 1 show the reaction of test animals 20-45 minutes after the intraperitoneal administration of selected compounds. In each case, the maximum dosage selected for the concentration of azaspiro compounds was held, by a factor of about 2, below the toxic dose previously determined in the IRWIN test (Irwin, Psychopharmacologia 13 (1968) 222).
First, the highest possible non-toxic concentration of the respective test substances that could be used was determined by an IRWIN test (Irwin, Psychopharmacologia 13, 1968, 222).

[2] = test system: NMRI mice; test: formalin test (in-vivo test for analgesic effectiveness); design: key to Mean deviation of the pain reaction compared to control (%) 30–35′ after administration of formalin / Mean deviation of the pain reaction compared to control (%) 20–25′ after administration of formalin: (+): Intensified pain reaction
Procedure: In each case, the maximum dosage selected for the concentration of azaspiro compounds was held, by a factor of about 2, below the toxic dose previously determined in the IRWIN test (Irwin, Psychopharmacologia 13 (1968) 222).
A reduction in the pain reaction is expressed in negative percentage figures.
1. In-vivo Test for Determining the Analgesic Effectiveness of the Azaspiro Compounds
The test was conducted as described by Wheeler-Aceto (Psychopharmacology 104, 1991, 35).
NMRI mice having a weight of 20-25 g were kept under controlled conditions (22±2° C., 40-70% relative humidity). 25 μl of a 5% formocarbonyl solution was injected in the hind leg and the leg-licking frequency was then clocked for 5 minutes each at defined intervals (20, 30, 40 minutes).
Next, for the formalin test, the test substances were dissolved in a physiological salt solution with 0.5% sodium carboxymethyl cellulose and were each measured in 1-3 dosages that had been applied intraperitoneally 10 minutes before administration of formalin. The comparative reference value was provided by a control excipient (10 ml/kg).
The test was performed in blind fashion on 10 mice per test series. The evaluation was based on a comparison of the treated animals with control excipients at three different times. […] Accordingly, an average 50% reduction of the pain reaction for the treated animals is obtained when in a defined period (e.g. 30-35′ after the formalin injection) the leg-licking duration (averaged over the 10 test animals) is reduced by 50% compared to the untreated animals. The statistical significance was determined using the Mann-Whitney U-test.

[3] = 8 mg/kg i.p., Test series 1 (n = 10)
[4] = 8 mg/kg i.p., Test series 2 (n = 10)
[5] = 16 mg/kg i.p., Test series 1 (n = 10)
[6] = 16 mg/kg i.p., Test series 2 (n = 10)
[7] = 32 mg/kg i.p., Test series 1 (n = 10)
[8] = 32 mg/kg i.p., Test series 2 (n = 10)
[9] = 4 mg/kg i.p., Test series 2 (n = 10)
[10] = 64 mg/kg i.p., Test series 1 (n = 10)
[11] = 64 mg/kg i.p., Test series 2 (n = 10)
[12] = 32 mg/kg i.p., (n = 10), no test series named

O=C1CC2(CCCCC2)CN1 [GPL, 2-azaspiro[4.5]decan-3-on, reference compound]
side effects above the maximally tolerable dosages (sedation, tremor, hypothermia) [1]: significant lethality rate | Mean deviation of the pain reaction compared to control (%) 20–25′ after administration of formalin [2, 3]: (+) | Mean deviation of the pain reaction compared to control (%) 30–35′ after administration of formalin [2, 3]: (+) | Mean deviation of the pain reaction compared to control (%) 20–25′ after administration of formalin [2, 4]: −58% | Mean deviation of the pain reaction compared to control (%) 30–35′ after administration of formalin [2, 4]: −18% | Mean deviation of the pain reaction compared to control (%) 40–45′ after administration of formalin [2, 4]: −15% | Mean deviation of the pain reaction compared to control (%) 20–25′ after administration of formalin [2, 5]: (+) | Mean deviation of the pain reaction compared to control (%) 30–35′ after administration of formalin [2, 5]: (+) | Mean deviation of the pain reaction compared to control (%) 20–25′ after administration of formalin [2, 6]: −74% | Mean deviation of the pain reaction compared to control (%) 30–35′ after administration of formalin [2, 6]: −40% | Mean deviation of the pain reaction compared to control (%) 40–45′ after administration of formalin [2, 6]: −41% | Mean deviation of the pain reaction compared to control (%) 20–25′ after administration of formalin [2, 7]: (+) | Mean deviation of the pain reaction compared to control (%) 30–35′ after administration of formalin [2, 7]: −10% | Mean deviation of the pain reaction compared to control (%) 20–25′ after administration of formalin [2, 8]: −64% | Mean deviation of the pain reaction compared to control (%) 30–35′ after administration of formalin [2, 8]: −15% | Mean deviation of the pain reaction compared to control (%) 40–45′ after administration of formalin [2, 8]: −46%

O=C1NC(=O)C2(CCCCC2)N1 [SPM 10011, 1,3-diazaspiro[4.5]decane-2,4-dion]
Mean deviation of the pain reaction compared to control (%) 20–25′ after administration of formalin [2, 9]: −62% | Mean deviation of the pain reaction compared to control (%) 30–35′ after administration of formalin [2, 9]: (+) | Mean deviation of the pain reaction compared to control (%) 20–25′ after administration of formalin [2, 5]: −75% | Mean deviation of the pain reaction compared to control (%) 30–35′ after administration of formalin [2, 5]: −11% | Mean deviation of the pain reaction compared to control (%) 40–45′ after administration of formalin [2, 5]: −55% | Mean deviation of the pain reaction compared to control (%) 20–25′ after administration of formalin [2, 6]: −84% | Mean deviation of the pain reaction compared to control (%) 30–35′ after administration of formalin [2, 6]: −21% | Mean deviation of the pain reaction compared to control (%) 40–45′ after administration of formalin [2, 6]: −34% | Mean deviation of the pain reaction compared to control (%) 20–25′ after administration of formalin [2, 7]: −82% | Mean deviation of the pain reaction compared to control (%) 30–35′ after administration of formalin [2, 7]: −64% | Mean deviation of the pain reaction compared to control (%) 40–45′ after administration of formalin [2, 7]: −64% | Mean deviation of the pain reaction compared to control (%) 20–25′ after administration of formalin [2, 10]: −100% | Mean deviation of the pain reaction compared to control (%) 30–35′ after administration of formalin [2, 10]: −100% | Mean deviation of the pain reaction compared to control (%) 40–45′ after administration of formalin [2, 10]: −80% | Mean deviation of the pain reaction compared to control (%) 20–25′ after administration of formalin [2, 11]: −100% | Mean deviation of the pain reaction compared to control (%) 30–35′ after administration of formalin [2, 11]: −100% | Mean deviation of the pain reaction compared to control (%) 40–45′ after administration of formalin [2, 11]: −97%

S=C1NC(=S)C2(CCCCC2)N1 [SPM 10013, 1,3-diazaspiro[4.5]decane-2,4-dithion]
Mean deviation of the pain reaction compared to control (%) 20–25′ after administration of formalin [2, 5]: −60% | Mean deviation of the pain reaction compared to control (%) 30–35′ after administration of formalin [2, 5]: −14% | Mean deviation of the pain reaction compared to control (%) 40–45′ after administration of formalin [2, 5]: −49% | Mean deviation of the pain reaction compared to control (%) 20–25′ after administration of formalin [2, 7]: −82% | Mean deviation of the pain reaction compared to control (%) 30–35′ after administration of formalin [2, 7]: −60% | Mean deviation of the pain reaction compared to control (%) 40–45′ after administration of formalin [2, 7]: −30% | Mean deviation of the pain reaction compared to control (%) 20–25′ after administration of formalin [2, 10]: −98% | Mean deviation of the pain reaction compared to control (%) 30–35′ after administration of formalin [2, 10]: −95% | Mean deviation of the pain reaction compared to control (%) 40–45′ after administration of formalin [2, 10]: −78%

O=C1NCC2(CCCCC2)N1 [SPM 10019, 1,3-diazaspiro[4.5]decane-2-on]
Mean deviation of the pain reaction compared to control (%) 20–25′ after administration of formalin [2, 12]: −52% | Mean deviation of the pain reaction compared to control (%) 40–45′ after administration of formalin [2, 12]: −40%

From patent US7282515B2, “Derivatives of azaspiro compounds for the treatment of pain” (Schwarz Pharma AG, priority 2002, dated 2007)
